Laboratory results taken from the RepoRT retention time repository.

Assay: HILIC, Waters ACQUITY UPLC BEH Amide, 100 × 2.1 mm, 1.7 µm; A: water + 0.125% formic acid + 10 mM ammonium formate; B: 5% water + 95% acetonitrile + 0.125% formic acid + 10 mM ammonium formate; gradient (min/%B) 0/100 2/100 7.7/70 9.5/40 10.25/30 12.75/100 17/100
Conditions: stereoisomer not certain

Compound `CC(OC1C(N)C(O)OC(CO)C1O)C(=O)O` (stereo not given) [Muramic acid] has an LC retention time of 8.28 min.

Work on `NCCCCC(N)C(=O)NCC(=O)O` (stereo not given) [Lys-Gly] yielded an LC retention time of 9.84 min.

`OCCOCCN1CCN(C2=Nc3ccccc3Sc3ccccc32)CC1` [Quetiapine] gave an LC retention time of 2.54 min.

Compound `COc1cc2c(cc1OC)C13CCN4CC5=CCOC6CC(=O)N2C1C6C5CC43` (stereo not given) [Brucine] has an LC retention time of 4.57 min.

For `CC(=O)OCC(=O)NCCCOc1cccc(CN2CCCCC2)c1` [Roxane], the LC retention time was 3.01 min.

In the case of `O=c1cc[nH]c2ccccc12` [4-Hydroxyquinoline], the LC retention time was 1.69 min.

Compound `Nc1nc2c(ncn2C2CC(O)C(CO)O2)c(=O)[nH]1` (stereo not given) [2'-Deoxyguanosine] has an LC retention time of 6.4 min.

Work on `CCC1=C(C)CN(C(=O)NCCc2ccc(S(=O)(=O)NC(=O)NC3CCC(C)CC3)cc2)C1=O` (stereo not given) [Glimepiride] yielded an LC retention time of 1.05 min.

In the case of `NC(CO)C(=O)O` (stereo not given) [Serine], the LC retention time was 8.73 min.

In the case of `NCCCCCN` [Cadaverine], the LC retention time was 8.99 min.

`CN(CC=CC#CC(C)(C)C)Cc1cccc2ccccc12` [Terbinafine] gave an LC retention time of 1.33 min.

`COc1ccc(-c2cc(=O)c3c(OC)c(OC)c(OC)c(OC)c3o2)cc1OC` [Nobiletin] showed an LC retention time of 1 min.

Compound `CC(C)CC(=O)OC(CC(=O)[O-])C[N+](C)(C)C` [Isovaleryl-L-carnitine] has an LC retention time of 5.36 min.

For `CC(=O)OCC1OC(Oc2c(-c3ccc(O)c(O)c3)oc3cc(O)cc(O)c3c2=O)C(O)C(O)C1O` (stereo not drawn) [Quercetin-3-O-beta-glucopyranosyl-6'-acetate], the LC retention time was 4.61 min.

Compound `Nc1c(O)cccc1C(=O)CC(N)C(=O)O` (stereo not given) [3-Hydroxykynurenine] has an LC retention time of 7.35 min.

`COc1cc(-c2oc3cc(O)cc(O)c3c(=O)c2OC2OC(CO)C(O)C(O)C2O)cc(OC)c1O` (stereo not given) [Syringetin-3-O-glucoside] showed an LC retention time of 4.32 min.

`OC1CCCCC1O` (stereo not given) [1,2-Cyclohexanediol] showed an LC retention time of 4.88 min.

Compound `NCCC(=O)O` [beta-Alanine] has an LC retention time of 8.02 min.

`C[N+](C)(C)CCCC(=O)O` [4-Trimethylammoniobutanoic acid] showed an LC retention time of 7.66 min.

Work on `Nc1nc2[nH]c(=O)cnc2c(=O)[nH]1` [Isoxanthopterin] yielded an LC retention time of 6.41 min.

For `Nc1ccc2cn[nH]c2c1` [6-Aminoindazole], the LC retention time was 1.26 min.

For `CC(C)(N)Cc1ccccc1` [Phentermine], the LC retention time was 6.23 min.

Compound `Nc1nc2c(ncn2C2CC(OP(=O)(O)O)C(CO)O2)c(=O)[nH]1` (stereo not given) [2'-Deoxyguanosine 3'-monophosphate] has an LC retention time of 9.43 min.

In the case of `COC(=O)C1=C(C)NC(C)=C(C(=O)OC2CCCN(Cc3ccccc3)C2)C1c1cccc([N+](=O)[O-])c1` (stereo not given) [Benidipine], the LC retention time was 1.46 min.

For `c1ccc(-c2ccc(C(c3ccccc3)n3ccnc3)cc2)cc1` (stereo not given) [Bifonazole], the LC retention time was 1.19 min.

For `CC(C)c1ccc2c(c1)c(SC(C)(C)C)c(CC(C)(C)C(=O)O)n2Cc1ccc(Cl)cc1` [MK-886], the LC retention time was 0.96 min.

In the case of `c1ccc2c(c1)Cc1ccccc1-2` [Fluorene], the LC retention time was 6.66 min.

`Cc1c2oc3c(C)ccc(C(=O)NC4C(=O)NC(C(C)C)C(=O)N5CCCC5C(=O)N(C)CC(=O)N(C)C(C(C)C)C(=O)OC4C)c3nc-2c(C(=O)NC2C(=O)NC(C(C)C)C(=O)N3CCCC3C(=O)N(C)CC(=O)N(C)C(C(C)C)C(=O)OC2C)c(N)c1=O` (stereo not given) [Actinomycin D] showed an LC retention time of 1.03 min.

Compound `O=c1[nH]cnc2c1ncn2C1OC(CO)C(O)C1O` (stereo not given) [Inosine] has an LC retention time of 6.19 min.

Compound `O=c1[nH]cnc2nc[nH]c12` [Hypoxanthine] has an LC retention time of 4.99 min.

Compound `NC(N)=NCCCC(N)C(=O)N1CCCC1C(=O)O` (stereo not given) [Arg-Pro] has an LC retention time of 9.51 min.

For `COC1C(O)C(CO)OC1n1cc(C)c(=O)[nH]c1=O` (stereo not given) [2'-O-Methyl-5-methyluridine], the LC retention time was 1.75 min.

`CCC=CCC1C(=O)CCC1CC(=O)OC` (stereo not given) [Methyl jasmonate] gave an LC retention time of 1.04 min.

Work on `COCc1c(C(C)C)nc(C(C)C)c(C=CC(O)CC(O)CC(=O)O)c1-c1ccc(F)cc1` (stereo not given) [Cerivastatin] yielded an LC retention time of 1.18 min.

`CN1CC(=O)NC1=N` [Creatinine] gave an LC retention time of 4.93 min.

For `COC(=O)C1C(OC(=O)c2ccccc2)CC2CCC1N2C` (stereo not given) [Cocaine], the LC retention time was 2.2 min.

For `C=C(C)CN1CCC23c4c5ccc(O)c4OC2c2[nH]c4ccccc4c2CC3(O)C1C5` (stereo not given), the LC retention time was 2.93 min.

With `Nc1ncnc2nc[nH]c12` [Adenine] the LC retention time was 4.71 min.

With `Cc1cc(=O)oc2cc(O)ccc12` [4-Methylumbelliferone] the LC retention time was 1.22 min.

Compound `O=C(O)Cc1c[nH]c2ccccc12` [3-Indoleacetic acid] has an LC retention time of 1.33 min.

`CNCCCCOc1ccccc1Cc1ccccc1` [Bifemelane] gave an LC retention time of 2.46 min.

`CNC(C)Cc1ccccc1` (stereo not given) [Methamphetamine] showed an LC retention time of 3.33 min.

For `NC(N)=NC(=O)c1nc(Cl)c(N)nc1N` [Amiloride], the LC retention time was 5.52 min.

For `Cc1ncc2n1-c1ccc(Cl)cc1C(c1ccccc1F)=NC2` [Midazolam], the LC retention time was 1.29 min.

In the case of `CCC1C(=O)OCC1Cc1cncn1C` (stereo not given) [Pilocarpine], the LC retention time was 2.23 min.

In the case of `CC(C)=CCCC(C)O` (stereo not given) [6-Methyl-5-hepten-2-ol], the LC retention time was 7.3 min.

`O=C(O)c1c[nH]c2ccccc12` [Indole-3-carboxylic acid] gave an LC retention time of 1.41 min.

`O=C1C(CCC(O)c2ccc(F)cc2)C(c2ccc(O)cc2)N1c1ccc(F)cc1` (stereo not given) [Ezetimibe] showed an LC retention time of 1.03 min.

`COc1ccc(CCN)cc1OC` [Homoveratrylamine] gave an LC retention time of 4.78 min.

Work on `CN(CCOc1ccc(CC2SC(=O)NC2=O)cc1)c1ccccn1` (stereo not given) [Rosigltazone] yielded an LC retention time of 1.24 min.

`O=CC(O)C(O)C(O)C(O)CO` (stereo not given) [Glucose] gave an LC retention time of 1.84 min.

`NC(CC(=O)O)C(=O)NC(Cc1ccccc1)C(=O)O` (stereo not given) [Asp-Phe] gave an LC retention time of 8.14 min.

For `NC(N)=NCCCC(N)C(=O)NCC(=O)O` (stereo not given) [Arg-Gly], the LC retention time was 9.85 min.

In the case of `O=C(O)CNC(=O)OCc1ccccc1` [N-Benzyloxycarbonylglycine], the LC retention time was 7.67 min.

In the case of `NC(=O)NCCC(=O)O` [3-Ureidopropionic acid], the LC retention time was 5.6 min.

`NCCCCN` [Putrescine] gave an LC retention time of 9.3 min.

`CSc1ncnc2nc[nH]c12` [6-Methylmercaptopurine] gave an LC retention time of 1.49 min.

`CN1C(=O)CN=C(c2ccccc2)c2cc(Cl)ccc21` [Diazepam] showed an LC retention time of 1.1 min.

`Oc1ccc2c3c1OC1c4[nH]c5ccccc5c4CC4(O)C(C2)N(CC2CC2)CCC314` (stereo not given) [Naltrindole] gave an LC retention time of 4.45 min.

Work on `CC1CC2C3CCC4=CC(=O)C=CC4(C)C3(F)C(O)CC2(C)C1C(=O)CO` (stereo not given) [Desoximetasone] yielded an LC retention time of 1.13 min.

`Cn1c(=O)[nH]c2ncn(C)c2c1=O` [1,7-Dimethylxanthine] gave an LC retention time of 1.69 min.

With `CC(=O)NCCC(=O)NC(Cc1cnc[nH]1)C(=O)O` [N-Acetyl-L-carnosine] the LC retention time was 8.35 min.

`Nc1c(O)cccc1C(=O)O` [3-Hydroxyanthranilic acid] showed an LC retention time of 1.48 min.

With `C=CCC1C=C(C)CC(C)CC(OC)C2OC(O)(C(=O)C(=O)N3CCCCC3C(=O)OC(C(C)=CC3CCC(O)C(OC)C3)C(C)C(O)CC1=O)C(C)CC2OC` (stereo not given) [Tacrolimus] the LC retention time was 1.07 min.

`Nc1nc(Cl)nc2c1ncn2C1OC(CO)C(O)C1O` (stereo not given) [2-Chloroadenosine] showed an LC retention time of 2.69 min.

`CC(=O)NC(CC(C)C)C(=O)O` (stereo not given) [N-Acetylleucine] gave an LC retention time of 2.29 min.

`NCCCCC(=O)O` [5-Aminovaleric acid] showed an LC retention time of 7.24 min.

Work on `CNCCCCC(N)C(=O)O` (stereo not given) [N-Methyllysine] yielded an LC retention time of 9.36 min.

In the case of `O=[N+]([O-])c1cc[n+]([O-])c2ccccc12` [4-Nitroquinoline-N-oxide], the LC retention time was 1.14 min.

Work on `CC12CCC(=O)C=C1CCC1C2CCC2(C)C(O)CCC12` (stereo not given) [Testosterone] yielded an LC retention time of 1.05 min.

In the case of `CC12CCC3C(CCC4CC(O)CCC43C)C1CCC2=O` (stereo not given) [Androsterone], the LC retention time was 4.62 min.

In the case of `NC(N)=NCC(=O)O` [Guanidinoacetic acid], the LC retention time was 8.16 min.

`NC(CCC(=O)NC(CS)C(=O)O)C(=O)O` (stereo not given) [gamma-Glutamyl-cysteine] showed an LC retention time of 8.98 min.

With `O=Cc1ccc(O)cc1` [4-Hydroxybenzaldehyde] the LC retention time was 1.18 min.

Work on `CNC[C@H](N)C(=O)O` [beta-N-Methylaminoalanine] yielded an LC retention time of 9.32 min.

In the case of `CC(O)C(NC(=O)C(N)CCC(=O)O)C(=O)O` (stereo not given) [Glu-Thr], the LC retention time was 9.44 min.

In the case of `NC(=O)N1c2ccccc2CC(=O)c2ccccc21` [Trileptal], the LC retention time was 1.13 min.

Compound `CCOC(=O)C1C(OC(=O)c2ccccc2)CC2CCC1N2C` (stereo not given) [Cocaethylene] has an LC retention time of 2.12 min.

`O=P(O)(O)OCC1OC(OC2OC(CO)C(O)C(O)C2O)C(O)C(O)C1O` (stereo not given) [Trehalose-6-phosphate] showed an LC retention time of 9.72 min.

`CCOC(=O)C1(c2ccccc2)CCN(CCC(C#N)(c2ccccc2)c2ccccc2)CC1` [Diphenoxylate] gave an LC retention time of 1.41 min.

Work on `O=P(O)(O)OCC1OC(O)C(O)C(O)C1O` (stereo not given) [Glucose-6-phosphate] yielded an LC retention time of 9.86 min.

With `COc1cccc(C2(O)CCCCC2CN(C)C)c1` (stereo not given) [Tramadol] the LC retention time was 2.52 min.

`O=C(O)CC(O)CC(O)C=Cc1c(C2CC2)nc2ccccc2c1-c1ccc(F)cc1` (stereo not given) [Pitavastatin] showed an LC retention time of 1.36 min.

Work on `CCc1c2c(nc3ccc(OC(=O)N4CCC(N5CCCCC5)CC4)cc13)-c1cc3c(c(=O)n1C2)COC(=O)C3(O)CC` (stereo not given) [Irinotecan] yielded an LC retention time of 5.03 min.

`COCCCOc1ccnc(CS(=O)c2nc3ccccc3[nH]2)c1C` (stereo not given) [Rabeprazole] gave an LC retention time of 2.44 min.

`O=C(NCCO[N+](=O)[O-])c1cccnc1` [Nicorandil] showed an LC retention time of 1.11 min.

With `CC(=O)n1ccnc1` [1-Acetylimidazole] the LC retention time was 1.37 min.

`CC(N)Cc1ccccc1` (stereo not given) [Amphetamine] gave an LC retention time of 4.6 min.

`O=C1OC(C(O)CO)C(O)=C1O` (stereo not given) [Ascorbic acid] showed an LC retention time of 1.44 min.

`CCCCCCCCO` [Octanol] gave an LC retention time of 8.47 min.
